From PubChem BioAssay AID1249 (Columbia University Molecular Screening Center, 2008) come the findings set out here.

SMILES strings stand for the structures. The source made the active and inactive calls. No rule for the calls is given here.

This assay can be described thus: cellular cytoskeleton assembly phenotype modulators – imaging, high-content imaging, retest and dose response, confirmation (AID 1249).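 Also: compound exposure lasted 24 h before fixation; plate controls were untreated cells for no effect and reference compound treated cells for full effect.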 Particulars: cell-based imaging, cytoskeleton assembly phenotype, high content; at 2 µM; hits give high values.
The term inhibition denotes the relative decrease from the control value, in per cent. With `Cc1cc(C(=O)CSc2nnc(-c3ccc(F)cc3)o2)c(C)n1CC1COc2ccccc2O1` (stereo not drawn), the inhibition was -0.5% (inactive).

For `N=c1nc(N)nc2n1NC(c1ccc(F)cc1)=CS2`, the inhibition is -1.7% (inactive).

Turning to `COc1ccc(Cl)c(NC(=O)Nc2c(C)n(-c3ccccc3)c(=O)n2C)c1`, the inhibition is 0.8% (inactive).

Regarding `Clc1ccc(-n2ncc3c(NCc4ccc5c(c4)OCO5)ncnc32)cc1`, the inhibition is 2.6% (inactive).

With `Cc1cccc(NC(=O)CSc2nc3ccc(NC(=O)CSc4nnnn4-c4ccccc4)cc3s2)c1C`, the inhibition was 2.9% (inactive).

Regarding `O=C(Nc1cnccn1)C1c2ccccc2Oc2ccccc21`, the inhibition was 9.9% (inactive).

On to `Cc1cc(N2CCC(C)CC2)nc(-n2nc(C)cc2C)n1`, for which the inhibition was 4.7% (inactive).

As for `COC(=O)c1[nH]c2cc(OC)ccc2c1NC(=O)CN1CCC(C(N)=O)(N2CCCCC2)CC1`, the inhibition is 3.6% (inactive).

In the case of `NC(=O)c1c(NC(=O)Cc2cccs2)sc2c1CCC2`, the inhibition was 6.6% (inactive).

As for `CCN(Cc1cc2cc(C)ccc2[nH]c1=O)C(=O)c1cccc(OC)c1`, the inhibition is 2.3% (inactive).

With `Cc1ccc(OCC(=O)N2CCN(C(=O)Cc3ccccc3)CC2)cc1`, the inhibition was -4.3% (inactive).

On to `CCOC(=O)N1CCN(C(=O)c2ccc3c(c2)NC(=O)C(N2CCOCC2)S3)CC1` (stereo not drawn), for which the inhibition was -8.5% (inactive).

With `O=C(Cn1ncc2c(=O)oc3ccccc3c21)NCCC1=CCCCC1`, the inhibition is -3.1% (inactive).

Turning to `Cn1c(CNc2ccccc2O)nc2ccccc21`, the inhibition was 1.8% (inactive).

For the compound `OC1(c2cccc(C(F)(F)F)c2)CCN(c2ncnc3c2[nH]c2ccc(F)cc23)CC1`, the inhibition is 7.8% (inactive).

With `O=C(O)c1ccccc1Nc1ccccc1C(=O)O`, the inhibition was 0.6% (inactive).

Consider `COc1ccc(OC)c(C(=O)c2coc3ccc(O)cc23)c1`, for which the inhibition is -8.7% (inactive).

With `Cc1ccc2nc(CCc3nc4ccc(C)cc4o3)oc2c1`, the inhibition was 5.4% (inactive).

Regarding `N=C1C(c2nc3ccccc3s2)=C(O)CN1Cc1ccco1`, the inhibition was 5.2% (inactive).

On to `CCOc1cc(/C=N\NC(=O)Cc2ccccc2)ccc1OCC(=O)Nc1ccc(C)c(C)c1`, for which the inhibition was -0.8% (inactive).

For `O=C(Oc1ccc2ccc(=O)oc2c1)N1CCOCC1`, the inhibition was -7.8% (inactive).

As to `CSC1=NCCN1C(=O)Cc1ccc(Cl)cc1`, the inhibition is 3% (inactive).

Consider `CCCc1nnc(SCC(=O)O)n1/N=C/c1ccc2c(c1)OCO2`, for which the inhibition is -4.9% (inactive).

`Cc1ccn2c(NC(=O)c3ccco3)c(-c3ccccc3)nc2c1`: the inhibition is 12.5% (inactive).

As for `C=CCOc1c2ccc(C(=O)NCc3ccccc3OC)cc2nn1C`, the inhibition is -6.1% (inactive).

Turning to `COCCNC(=O)C(c1cccs1)N(Cc1cccs1)C(=O)Cn1nnc2ccccc21` (stereo not drawn), the inhibition is -4.6% (inactive).

In the case of `CCCc1sc(N/N=C/c2ccccn2)nc1-c1ccc(Br)cc1`, the inhibition is -11.5% (inactive).

For `O=C(O)c1cc2nc3c(c(C(F)(F)F)n2n1)CCc1ccccc1-3`, the inhibition was 3.7% (inactive).

Regarding `O=C1CC(c2ccccc2)Cc2nc3ncnn3cc21` (stereo not drawn), the inhibition was 2.1% (inactive).

With `CCCn1c(SCC(=O)NCc2ccco2)nnc1C(C)C`, the inhibition was -5.7% (inactive).

On to `COc1ccc(Nc2cc(C(=O)NCCCN3CCOCC3)c3ccccc3n2)cc1OC`, for which the inhibition is 4.3% (inactive).

As for `Cc1cc(C)cc(-n2nnnc2SCC(=O)Nc2nc(-c3ccc(Cl)cc3)cs2)c1`, the inhibition was -9.2% (inactive).

In the case of `CCOC(=O)c1[nH]c(C)c(C(=O)c2ccc(C)cc2)c1C`, the inhibition is 10.5% (inactive).

`O=C(OCC(=O)N1CCN(c2ccccc2)CC1)c1ccc2ncsc2c1`: the inhibition was 0.2% (inactive).

On to `COC(=O)COc1ccc(=O)n(-c2ccccc2)n1`, for which the inhibition was -8.8% (inactive).

Regarding `CSc1ccc(S(=O)(=O)Nc2ccc3c4c(cccc24)CC3)cc1`, the inhibition was -10% (inactive).

Turning to `Cc1nonc1NC(=O)CSc1nc(C2CCCCC2)nc2ccccc12`, the inhibition is -6.5% (inactive).

Regarding `CCN(CC)S(=O)(=O)c1ccc(NC(=O)C(C)N(c2ccc(OC)cc2)S(C)(=O)=O)cc1` (stereo not drawn), the inhibition is -14.1% (inactive).

For `CCCCOCCCNC(=O)c1cccs1`, the inhibition was -7.7% (inactive).

With `CCCCN(C)CCCNC(=O)c1ccc2c(c1)NC(=O)C(N1CCOCC1)S2` (stereo not drawn), the inhibition is 5.4% (inactive).

`CCOc1ccc(C(=O)C(c2ccccc2)N2CCOCC2)cc1` (stereo not drawn): the inhibition was 4.3% (inactive).

In the case of `O=C(CS(=O)(=O)c1cn(Cc2cccc(F)c2)c2ccccc12)N1CCCCC1`, the inhibition was -1.5% (inactive).

Take `COc1ccc(C(c2sc3ncnn3c2O)N2CC(C)OC(C)C2)cc1OC` (stereo not drawn): the inhibition is 5% (inactive).

On to `CCOC(=O)C1C(=O)NC(N2CCCCC2)=NC1c1ccco1` (stereo not drawn), for which the inhibition is -0.9% (inactive).

Consider `CCOc1ccc2[nH]c(=O)c(CN(Cc3ccccc3)C(=O)N3CCCC3)cc2c1`, for which the inhibition is 12.4% (inactive).

Consider `COc1cc(NC(=O)CN2C(=O)NC(C)(CC(C)C)C2=O)cc(OC)c1` (stereo not drawn), for which the inhibition is 1.2% (inactive).

Regarding `COc1ccc(S(=O)(=O)Nc2nc3n(n2)C(c2ccc(Cl)cc2)CC(=O)N3)cc1` (stereo not drawn), the inhibition is 4.9% (inactive).

As for `O=S(=O)(c1cccs1)N1CCN(CC(O)COc2cccc(Br)c2)CC1` (stereo not drawn), the inhibition is 5.3% (inactive).

For `Cc1ccc(-n2ncc3c(N4CCN(c5ccccc5)CC4)ncnc32)c(C)c1`, the inhibition is -18.4% (inactive).

Take `Cc1ccc(-c2nn(C(C)(C)C)c3ncnc(N)c23)cc1`: the inhibition was -7.8% (inactive).

In the case of `COc1ccc(N2C(=O)CC(NC3CCCCNC3=O)C2=O)cc1` (stereo not drawn), the inhibition is -8.6% (inactive).

As to `CCOC1=NC(C(=O)O)c2ccccc2/C(=C(/C)Cl)N1` (stereo not drawn), the inhibition is -4.3% (inactive).

On to `Cc1ccc(O)c(NC(=O)CCC2CCCCC2)c1`, for which the inhibition is -15.6% (inactive).

In the case of `O=C(N/N=C/c1ccncc1)c1ccccc1`, the inhibition is 1.1% (inactive).

Turning to `CCCC(=O)Nc1ccc(Cl)c(NC(=O)CC)c1`, the inhibition is -2% (inactive).

`CCOc1ccc(NC(=O)C2CCN(C(=O)NC3CCCCC3)CC2)cc1`: the inhibition is -1.9% (inactive).

As for `O=C(c1cc(-c2ccncc2)nc2ccc(Br)cc12)N1CCN(c2ccccn2)CC1`, the inhibition was -1% (inactive).

For the compound `CC1=C(C#N)C(Nc2cccc(C)n2)(C(F)(F)F)C(=O)N1` (stereo not drawn), the inhibition is 7% (inactive).

For the compound `O=[N+]([O-])c1ccc(O)c(/C=N/Nc2ccc(Cl)nn2)c1`, the inhibition is -6.8% (inactive).

Regarding `O=C1C2CCCN2C(c2cccnc2)N1c1ccc(Cl)c(Cl)c1` (stereo not drawn), the inhibition is 3.6% (inactive).

`O=C(O)c1cccc(S(=O)(=O)Nc2ccccc2Cl)c1`: the inhibition is -2.5% (inactive).

With `Cc1noc(C)c1S(=O)(=O)N1CCC2(CC1)OCCO2`, the inhibition is -7.2% (inactive).

Turning to `COc1cccc(CSc2nc3ccccc3cc2C=O)c1`, the inhibition is 3.2% (inactive).

As to `CCCCSc1nc(C)cc(SCC(=O)N/N=C/c2cccc(OC)c2O)n1`, the inhibition was -6.7% (inactive).

Turning to `Clc1ccc(C2=Nn3c(nnc3-c3cccnc3)SC2)s1`, the inhibition is 0% (inactive).

As to `O=Cc1cc2ccccc2nc1SCc1ccc(Cl)cc1`, the inhibition was 8.6% (inactive).

`CC1(C)CC(=O)c2cc(OCC(=O)NCCCN3CCN(c4ccc(F)cc4)CC3)ccc2O1`: the inhibition is 8.9% (inactive).

`Cc1ccc(OCC(O)CN2CCN(CC(O)COc3ccc(C)cc3)CC2)cc1` (stereo not drawn): the inhibition is 10.9% (inactive).

For `CN(Cc1ccccc1)S(=O)(=O)c1ccc(NC(=S)NC(=O)C2CCCC2)cc1`, the inhibition was -1.4% (inactive).

Take `O=c1c(-c2ccc(Br)cc2)coc2c(CN3CCOCC3)c(O)ccc12`: the inhibition is 3.1% (inactive).

`Cc1cccc(NC(=O)Cn2nc(C(F)(F)F)cc2C2CC2)c1`: the inhibition was -14.3% (inactive).

In the case of `Nc1cc(=O)nc(SCc2ccccc2)n1Cc1ccco1`, the inhibition is 3.5% (inactive).

Turning to `COc1ccc(-c2nnc(SCC(=O)N3CCCc4ccccc43)o2)cc1OC`, the inhibition was -16.4% (inactive).

For the compound `CCc1nnc(NC(=O)CSc2nnc(COc3ccccc3)n2-c2ccc(C)cc2)s1`, the inhibition was -4.1% (inactive).

Turning to `CCN1C(=O)CSC1=NC12CC3CC(CC(C3)C1)C2`, the inhibition is -5.5% (inactive).

Take `CC(=O)c1c(C(C)=O)c(C)n(NC(=O)c2ccccc2O)c1C`: the inhibition was -15.8% (inactive).

`COc1ccc(Oc2cc(NC(=O)c3nn(C)cc3[N+](=O)[O-])cc([N+](=O)[O-])c2)cc1`: the inhibition was 11.6% (inactive).

For the compound `Cn1cccc1C(=O)OCC(=O)Nc1cc(C(C)(C)C)nn1-c1ccccc1`, the inhibition was -17.7% (inactive).

As to `Cn1c(NCc2c[nH]c3ccccc23)nc2ccccc21`, the inhibition is -13.6% (inactive).

For `COC(=O)c1sccc1NC(=O)c1ccc(Br)s1`, the inhibition was 1.8% (inactive).

`COc1ccc(-c2cc(C(=O)Nc3cc(C)n(Cc4ccc(Cl)cc4)n3)no2)cc1OC`: the inhibition was 6.8% (inactive).

`Cc1cc(C)n(-c2nc3ccccc3nc2N2CCN(C(=O)c3ccc(Cl)cc3)CC2)n1`: the inhibition was -2.4% (inactive).

For `Nc1ccccc1NC(=O)c1ccccc1N`, the inhibition is 3.6% (inactive).

Take `Cc1nc([N+](=O)[O-])c(Br)n1CC(=O)c1ccc(Br)cc1`: the inhibition was -7.3% (inactive).

Consider `COc1cccc(C(=O)COc2cccc(NC(=O)c3cccc([N+](=O)[O-])c3)c2)c1`, for which the inhibition was -2.2% (inactive).

Take `CC(=O)Nc1ccc(S(=O)(=O)n2cnc(C)c2)cc1`: the inhibition was 6.7% (inactive).

As for `NC(=S)N/N=C/c1ccc(-c2cc(Cl)ccc2Cl)o1`, the inhibition is -7.4% (inactive).

Take `COc1cc2c3c(c1OC)-c1cc(O)ccc1CC3NCC2` (stereo not drawn): the inhibition is -1.7% (inactive).
